Two compounds from patent publication US4101538A, “Nonapeptides and methods for their production” (Warner-Lambert, priority 1977, dated 1978) can be followed below.

This assay relates to LRF (luteinizing hormone releasing factor) induced luteinizing hormone (LH) release. The experiment in a line: In vitro LRF antagonist test in rat anterior pituitary cell cultures. It is filed as cell-based. From the text: Nonapeptides of this invention were screened for LRF antagonist activity in vitro using rat anterior pituitary cell cultures as described by Vale et. al. [Endocrinology, 91, 562 (1972)]. The inhibition of LRF (luteinizing hormone releasing factor) induced luteinizing hormone (LH) release into the culture medium is the endpoint in this in vitro bioassay.

Where a SMILES comes first, the peptide text is derived from it. The star is where a group is joined. Cbz = O=C(OCc1ccccc1)*; Bn = c1ccc(C*)cc1

Turning to `NC(=O)CC[C@H](NC(=O)OCc1ccccc1)C(=O)N[C@@H](Cc1c[nH]c2ccccc12)C(=O)N[C@@H](CO)C(=O)N[C@@H](Cc1ccc(O)cc1)C(=O)N[C@@H](Cc1c[nH]c2ccccc12)C(=O)N1CCC[C@H]1C(=O)N1CCC[C@H]1C(=O)N[C@@H](Cc1ccc(OCc2ccccc2)cc1)C(=O)N[C@@H](COCc1ccccc1)C(N)=O` [N^α -benzyloxycarbonyl-L-glutaminyl-L-tryptophyl-L-seryl-L-tyrosyl-L-tryptophyl-L-prolyl-L-prolyl-O-benzyl-L-tyrosyl-O-benzyl-L-serinamide] (Cbz-QWSYWPPY(Bn)S(Bn)-NH2), the “% LH Release Inhibition” value is on record as 29% (compound molar conc. 1×10^-7) and 37% (compound molar conc. 1×10^-8). The “LH Value” runs as follows: (compound molar conc. 1×10^-7, LH released into culture medium) 52.33 ng/mL; (compound molar conc. 1×10^-8, LH released into culture medium) 47.20 ng/mL.
As for “LRF Control: luteinizing hormone releasing factor, also referred to as luteinizing hormone releasing hormone (LH-RH); stimulates secretion of luteinizing hormone (QHWSYGLRPG; Gonadoliberin-1; UniProt P01148 24-33, looked up) [reference compound]”, where the note is “LRF alone, molar conc. 5×10^-10”, the “LH Value” worked out at 69.51 ng/mL.
